Legend:
[1] = system: co-culture of human glioblastoma astrocytoma cells and neuroblastoma cells; assay: α-synuclein-induced IL-6 secretion in co-culture; assay type: cell-based; conditions: 25 μg/ml α-synuclein (Wt, A53T, E46K), 10% bacteria supernatant, 48 hrs
Protocol: SHSY5Y cells were plated on 12 well plates at a density of 50,000 cells/well. The cells were grown in 50% MEM and 50% Nutrient Mixture F-12 Ham media supplemented with 2 mM L-Glutamine, 10% heat inactivated FBS, 100 U/ml penicillin, 100 μg/ml streptomycin. Cells on growth medium were plated on 96-well plate at 11,000 cells/well and placed in the incubator. After 2 days, media were replaced with differentiation medium (growth medium containing 1% FBS) and 10 μM retinoic acid. Differentiation medium was replaced every other day and cells were used after 7 days of differentiation. U373 were plated on 12 transwell plates (0.4 μm polyester membrane, Costar) at a density of 50,000 cells/well for 72 hrs. Cells were co-cultured together for 24 hrs before treatment in differentiation medium (growth medium containing 1% FBS without retinoic acid).
Thereafter cells were treated with 25 μg/ml α-synuclein (Wt, A53T, E46K) in the presence or absence of 10% bacteria supernatant for 48 hrs. Cell free Supernatants were collected, spun-down at 10000 g for 3 min at 4° C., aliquoted and stored at −80° C. Human IL-6 and IL-8 were measured as described above.

[2] = system: differentiated SHSY-5Y neuroblastoma cells; assay: ROS generated by TBHP (DCFDA fluorescence); assay type: cell-based, human; conditions: 100 uM TBHP, 10% bacteria supernatant, 2 h
Protocol: SHSY-5Y cells were plated in black flat bottom 96 well plate at density of 5000 cells/well and placed in the CO2 incubator. After 24 h, media were replaced with differentiation medium (growth medium containing 1% FBS) and 10 μM retinoic acid. Differentiation medium was replaced every other day. On Day 10 the differentiation medium was removed and cells were washed with pre-warmed PBS and stained with 10 uM DCFDA molecular probe for 20 mins in growth medium containing 1% FBS. Then cells were washed with pre-warmed PBS again and treated with 100 uM TBHP in the presence or absence of 10% bacteria supernatant for 2 h. Fluorescence intensity was measured using TECAN plate reader at Ex/Em 485/530 nm.

BALBc mice [3] = assay: Monoamine analysis in brainstem of mice fed with bacteria (HPLC); assay type: in vivo, mouse; conditions: 1×10^9 CFU oral gavage 6 days
Protocol: Neurotransmitter concentration was analysed by HPLC on samples from the brainstem. Briefly, brainstem tissue was sonicated in 500 μl of chilled mobile phase spiked with 4 ng/40 μl of N-Methyl 5-HT (Sigma Chemical Co., UK) as internal standard. The mobile phase contained 0.1 M citric acid, 5.6 mM octane-1-sulphonic acid (Sigma), 0.1 M sodium dihydrogen phosphate, 0.01 mM EDTA (Alkem/Reagecon, Cork) and 9% (v/v) methanol (Alkem/Reagecon) and was adjusted to pH 2.8 using 4 N sodium hydroxide (Alkem/Reagecon). Homogenates were then centrifuged for 15 min at 22,000×g at 4° C. and 40 μl of the supernatant injected onto the HPLC system which consisted of a SCL 10-Avp system controller, LECD 6A electrochemical detector (Shimadzu), a LC-10AS pump, a CTO-10A oven, a SIL-10A autoinjector (with sample cooler maintained at 40 C) and an online Gastorr Degasser (ISS, UK). A reverse-phase column (Kinetex 2.6 u C18 100×4.6 mm, Phenomenex) maintained at 30° C. was employed in the separation (Flow rate 0.9 ml/min). The glassy carbon working electrode combined with an Ag/AgCl reference electrode (Shimdazu) operated a +0.8 V and the chromatograms generated were analyzed using Class-VP 5 software (Shimadzu). The neurotransmitters were identified by their characteristic retention times as determined by standard injections, which run at regular intervals during the sample analysis. The ratios of peak heights of analyte versus internal standard were measured and compared with standard injection. Results were expressed as ng of neurotransmitter per g fresh weight of tissue.

BALBc mice [4] = assay: Ex vivo gene expression in colon and ileum of mice fed with bacteria; parameters: species or system mouse
Protocol: Animals were allowed to habituate to their holding room for one week after arrival into the animal unit. They receive oral gavage (200 μL dose) of live biotherapeutics at a dose of 1×10^9 CFU for 6 consecutive days between 15:00 and 17:00. On day 7, the animals are decapitated, and tissues are harvested for experimentation. The in vitro results were compared with data from the ex vivo parallel analysis on the gut of mice fed with […] expression of TJP2 and occludin was quantified in the colon and ileum. […] Total RNA was extracted using the mirVanaTM miRNA Isolation kit (Ambion/Llife technologies, Paisley, UK) and DNase treated (Turbo DNA-free, Ambion/life technologies) according to the manufacturers recommendations. RNA was quantified using NanoDropTM spectrophotometer (Thermo Fisher Scientific Inc., Wilmington, Del., USA) according to the manufacturer's instructions. RNA quality was assessed using the Agilent Bioanalyzer (Agilent, Stockport, UK) according to the manufacturer's procedure and an RNA integrity number (RIN) was calculated. […] RNA was reverse transcribed to cDNA using the Applied Biosystems High Capacity cDNA kit (Applied Biosystems, Warrington, UK) according to manufacturer's instructions. Briefly, Multiscribe Reverse Transcriptase (50 U/μL) (1)(2)(1)(10) was added as part of RT master mix, incubated for 25° C. for 10 min, 37° C. for 2 h, 85° C. for 5 min and stored at 4° C. Quantitative PCR was carried out using probes (6 carboxy fluorescein-FAM) designed by Applied Biosystems to mouse specific targeted genes, while using β-actin as an endogenous control. Amplification reactions contained 1 μl cDNA, 5 μl of the 2× PCR Master mix (Roche), 900 nM of each primer and were brought to a total of 10 μl by the addition of RNase-free water. All reactions were performed in triplicate using 96-well plates on the LightCycler®480 System. Thermal cycling conditions were as recommended by the manufacturer (Roche) for 55 cycles. To check for amplicon contamination, each run contained no template controls in triplicate for each probe used. Cycle threshold (Ct) values were recorded. Data was normalized using β-actin and transformed using the 2-ΔΔCT method and presented as a fold change vs. control group.

[5] = system: SH-SY5Y neuroblastoma cells; assay: Neuroprotection / cell viability of neuroblastoma cells treated with MPP (CCK-8); assay type: cell-based, human
Protocol: Once grown the SH-SY5Y neuroblastoma cells were plated on 96-well plate at 11,000 cells/well and incubated for 2 days. The cells were then transferred to differentiation medium (which contains FBS at 1%) and 10 uM retinoic acid (Sigma Aldrich, cat. n. R2625-100MG). Differentiation medium was replaced every other day and cells were harvested at 7 day of differentiation. Cells were pre-treated with or without MPP (Sigma Aldrich, cat. n. D048-1G) for 8 hours. Subsequently, cells were treated with 10% bacterial supernatant and incubated overnight. Cell viability was measured by using CCK-8 reagent (Sigma Aldrich, Cell Counting Kit-8, cat. n. 96992-3000TESTS-F) and read at 450 nm wavelength.

Megasphaera massiliensis [MRx0029]
α-syn-induced secretion of IL-6 [1]: greatest
ROS production [2]: inhibit
5-HIAA in brain (BALBc mice [3]): slight increase
serotonin in brain (BALBc mice [3]): slight increase
noradrenaline levels in brain (BALBc mice [3]; p=0.0507): increased
expression tryptophan hydroxylase-1 (Tph1) (BALBc mice [4]; colon): significantly increase
TJP1 expression in colon (BALBc mice [4]; colon region of the murine intestine): significantly up-regulate
Occludin expression in colon (BALBc mice [4]; colon region of the murine intestine, p=0.073): significantly up-regulate
proliferation of neurons ([5]; 10% bacterial supernatant, without MPP): increase
cell viability of cells treated with MPP ([5]; MPP pre-treatment 8 hours, then 10% bacterial supernatant overnight, compared to MPP alone): rescued viability more than the positive control
protection from MPP+ (cell viability) ([5]; RA-differentiated SHSY-5Y cells treated with MPP+): complete protection
mitochondria metabolic activity ([5]; RA-differentiated SHSY-5Y cells, per se (no MPP+)): increase
